Source: US12508302B2, “Pharmaceutical composition providing mucolytic effect” (FRIMLINE PRIVATE LIMITED, priority 2022, dated 2025)

Tested on: tracheobronchial secretion in rats
Assay: Mucolytic activity in rats: tracheobronchial secretion of fluorescein sodium (FINa)
Type: in vivo, rat (Swiss Albino Rats)
Conditions: for Fluorescein Sodium (FINa) Secretion: dosed 30 minutes before i.v. FINa 300 mg/kg, tracheobronchial lavage one hour after administration, doses as Table 1, mean±SEM; for Percentage (%) Enhancement of FINa secretion compared to Normal: versus normal group (G1)
Protocol: The effect of the compositions of the present invention was studied in animals. For this study, screening effect of synergistic combination of compositions/formulations comprising N-Acetyl-L-Cysteine, Lactoferrin and additional active ingredients for mucolytic activity in rat was performed. The following trials were carried out:
Eighty-Four (84) rats including male and female (Swiss Albino Rats) divided into 14 groups (6 per group) were maintained in animal house in a light/dark atmosphere based on a 12 hour cycle having temperature and relative humidity in the range of 19 to 25±2° C. and 30-70%, respectively. To maintain the appropriate conditions, temperature and relative humidity were recorded three times daily. All animals were acclimatized for a minimum period of five days. Animals were maintained in the test setup for minimum 30 minutes once during the acclimatization period to reduce the stress. Animals were weighed on the day of receipt and observed daily for abnormalities if any. Detailed records of acclimatization were also maintained. Rats were housed 3 per cage in clean, sterilized Polypropylene cages. During complete experiments, animals were supplied with the standard certified rat pellet feed and drinking water treated by reverse osmosis ad libitum.
In order to evaluate the mucolytic activity in rats, eighty-four (84) rats were screened and divided into Fourteen (14) groups. For a comparative analysis, groups were divided and treated as below:
Tracheobronchial secretion in rats, expressed by the amount of fluorescein sodium (FINa) dye excreted into the respiratory tract, was measured by modification of methods published earlier.
Lactoferrin, Carotenoid, N-Acetyl-L-Cysteine or their combinations (G4-G14) were suspended in 1% Acacia. Acetylcholine (G2) and Bromhexine (G3) were dissolved in distilled water. The said active ingredients were administered orally (1 ml/100 g body weight) 30 minutes before intravenous injection of FINa (300 mg/kg, 0.1 ml/100 g body weight) in fasted rats.
One hour after administration, all rats were sacrificed with CO2 exposure; an incision was made, and the trachea was immediately exposed. An infant feeding tube was gently inserted into the trachea (about 30 mm deep). Five milliliters of 5% NaHCO3 solution (˜37° C.) was injected into the respiratory tract and immediately aspirated while gently massaging the thoracic area.
The tracheobronchial lavage fluid (4.9±0.1 ml) was centrifuged (3500 rpm for 10 minutes) and the supernatant was transferred to STP B & L tubes. The fluorescence intensity of the supernatant was measured with a Genesys 20 spectrophotometer set at a wavelength of 510 nm (emission).

Row | SMILES | Fluorescein Sodium (FINa) Secretion | Percentage (%) Enhancement of FINa secretion compared to Normal (doses as Table 1) | Percentage (%) Enhancement of FINa secretion compared to Normal (doses as Table 1, listed as diseased group) | Percentage (%) Enhancement of FINa secretion compared to Normal (doses as Table 1, listed as N-Acetyl-L-Cysteine) | Percentage (%) Enhancement of FINa secretion compared to Normal (doses as Table 1, listed as positive control)
1 | CC(=O)OCC[N+](C)(C)C [Diseased Control, Acetylcholine] | 0.37 ± 0.12 μg/100 g/h | −74.13 ± 6.4 ^ % | −74.13% | – | –
2 | CC(=O)N[C@@H](CS)C(=O)O [NAC, N-Acetyl-L-Cysteine] | 1.99 ± 0.08 μg/100 g/h | 39.16 ± 5.1% | – | 39.16% | –
3 | CN(Cc1cc(Br)cc(Br)c1N)C1CCCCC1 [Positive Control, Bromhexine] | 2.64 ± 0.18 μg/100 g/h | 84.62 ± 6.1% | – | – | 84.62%
